The values that follow come from patent US11802127B2, “3,4-dihydro-2,7-naphthyridine-1,6(2H,7H)-diones as MEK inhibitors” (Pfizer Inc., priority 2021, dated 2023).

In the series the target is T1, BCRP (hBCRP) (Homo sapiens, UniProt Q9UNQ0).
T1 construct: expressed in transfected cells; host or cells: MDCKII (canine kidney) cells, canine P-gp knockout, transfected with BCRP
T1 sequence (Q9UNQ0 1-655): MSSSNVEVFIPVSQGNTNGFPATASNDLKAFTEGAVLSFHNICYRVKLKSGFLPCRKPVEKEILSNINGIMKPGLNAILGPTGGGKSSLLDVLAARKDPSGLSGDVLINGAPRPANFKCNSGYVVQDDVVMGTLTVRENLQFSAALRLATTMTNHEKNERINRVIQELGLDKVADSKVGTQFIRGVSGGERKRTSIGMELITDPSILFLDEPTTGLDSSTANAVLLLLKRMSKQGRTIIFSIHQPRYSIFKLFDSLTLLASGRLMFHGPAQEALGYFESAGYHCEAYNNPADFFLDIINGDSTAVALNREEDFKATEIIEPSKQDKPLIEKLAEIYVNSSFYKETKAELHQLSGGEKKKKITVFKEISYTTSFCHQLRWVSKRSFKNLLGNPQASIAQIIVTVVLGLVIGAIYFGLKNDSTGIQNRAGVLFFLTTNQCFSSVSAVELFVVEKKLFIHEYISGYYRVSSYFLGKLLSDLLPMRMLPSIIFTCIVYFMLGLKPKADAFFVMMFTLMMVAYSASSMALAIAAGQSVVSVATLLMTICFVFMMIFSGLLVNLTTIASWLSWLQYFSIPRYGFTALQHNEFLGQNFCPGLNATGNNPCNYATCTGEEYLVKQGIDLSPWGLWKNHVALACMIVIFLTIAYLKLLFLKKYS
Briefly: Efflux ratio in BCRP transfected MDCKII canine P-gp knockout cells. The following applies: Papp(B−A)/Papp(A−B), read-out: Efflux ratio MDCKII-hBCRP knock-in,canine pg-P KO. The format is in vitro ADME. Put shortly:
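Test article at 1 μM final (1% organic) in A→B and B→A directions across MDCKII P-gp knockout monolayers expressing BCRP, 2 h at 37° C., triplicate; lucifer yellow checked monolayer integrity. Concentrations by LC-MS/MS against labetalol internal standard; efflux ratio = Papp(B−A)/Papp(A−B).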
As for `Cn1c(Nc2ccc(OC(F)F)cc2F)c2c(cc1=O)CCN(OCCO)C2=O` [Example 22, 8-((4-(difluoromethoxy)-2-fluorophenyl)amino)-2-(2-hydroxyethoxy)-7-methyl-3,4-dihydro-2,7-naphthyridine-1,6(2H,7H)-dione], the efflux ratio at 2 h, 1 μM came out at 9.
For `Cc1c2c(c(Nc3ccc(Br)cc3F)n(C)c1=O)C(=O)N(OCCO)CC2` [Example 36, 8-((4-bromo-2-fluorophenyl)amino)-2-(2-hydroxyethoxy)-5,7-dimethyl-3,4-dihydro-2,7-naphthyridine-1,6(2H,7H)-dione] the value was 3.5.
For `Cn1c(Nc2ccc(I)cc2F)c2c(cc1=O)CCN(OCCO)C2=O` [Example 8, 8-((2-fluoro-4-iodophenol)amino)-2-(2-hydroxyethoxy)-7-methyl-3,4-dihydro-2,7-naphthyridine-1,6(2H,7H)-dione] the value was 3.4.
The same measure for `CSc1ccc(Nc2c3c(cc(=O)n2C)CCN(OCCO)C3=O)c(F)c1` [Example 6, 8-((2-fluoro-4-(methylthio)phenyl)amino)-2-(2-hydroxyethoxy)-7-methyl-3,4-dihydro-2,7-naphthyridine-1,6(2H,7H)-dione]: 5.5; for `Cn1c(Nc2ccc(Br)cc2F)c2c(cc1=O)CCN(OCCO)C2=O` [Example 7, 8-((4-bromo-2-fluorophenyl)amino)-2-(2-hydroxyethoxy)-7-methyl-3,4-dihydro-2,7-naphthyridine-1,6(2H,7H)-dione]: 9.6; for `CCc1ccc(Nc2c3c(cc(=O)n2C)CCN(OCCO)C3=O)c(F)c1` [Example 14, 8-((4-ethyl-2-fluorophenyl)amino)-2-(2-hydroxyethoxy)-7-methyl-3,4-dihydro-2,7-naphthyridine-1,6(2H,7H)-dione]: 3.4.
